Assay results reported in patent publication US7282340B2, “Methods for identifying an analog that promotes nerve regeneration” (Oregon Health Sciences University, priority 1997, dated 2007).
Several values for one entry are separate records, joined by “and”; a condition that tells them apart may be missing. Equal entries are not always repeated. Marks after values point to notes of the source that are not given here.

How the values were obtained:
rat sciatic nerve [1] = details: cited from earlier work
[2] = rat, in vivo, sc, 400 mg/kg/day
Procedure: (§1) Preparation and administration of V-10,367. V-10,367-HCl (molecular weight, 639.18) was dissolved in vehicle comprising 40% propylene glycol:10% ethanol:50% water. Fresh solutions were prepared at the time of each injection. Three rats received subcutaneous injections (200 mg/kg) every 12 hours (beginning immediately after the nerve crush; totaling 400 mg/kg/day) in the back of the neck using a 25 g needle. Control animals (n=3) received injections every 12 hours of vehicle only. An additional control group (n=3) received daily injections of saline. Animals were weighed daily and the weights plotted over the 18-day period of the study.

FKBP-12 = FKBP-12 (Homo sapiens, UniProt P62942); assay: FKBP-12 inhibition; type: biochemical
Description: Assays for inhibition of FKBP-12 rotamase activity are described in Harding et al. (Nature 341:758-760, 1989), Siekierka et al., Nature 341:755-757, 1989, and U.S. Pat. No. 5,654,332, for example. Chymotrypsin is able to cleave p-nitroanilide from the trans form of the artificial substrate N-succinyl-Ala-Ala-Pro-Phe-p-nitroanilide, but not from the cis form. The assays of Harding et al. and Siekierka et al. employ a reaction mixture that includes the cis form of N-succinyl-Ala-Ala-Pro-Phe-p-nitroanilide, FKBP-12, a test compound, and chymotrypsin, and spectrophotometrically measure the release of p-nitroanilide as a result of isomerization of the substrate.

[3] = tested on: SH-SY5Y human neuroblastoma cells; assay: Neurite outgrowth (neurite length) in NGF-treated SH-SY5Y cells; type: cell-based; details: for Mean neurite length: mean ± SEM
Procedure: Cell cultures. SH-SY5Y human neuroblastoma cells were maintained in DMEM medium (GIBCO) supplemented with 10% fetal calf serum (SIGMA), 50 IU>mL penicillin, and […] streptomycin (GIBCO) at 37° C. in 7% CO^2. Cells were plated in six-well plates at 1×10^6 cells/well and treated with […] aphidicolin (SIGMA). At five days, cells were washed, treated with nerve growth factor (NGF) (Boehringer Mannheim, Indianapolis, Ind.) at 10 ng/mL (to induce process outgrowth) in the presence or absence of V-10,367 (1, 10, or 100 nM) (Armistead et al., Acta Cryst., D51:522-528, 1995; FIG. 1). Media was changed at 96 hours and replaced with fresh media with or without the compounds (NGF and V-10,367) for an additional 72 hours (total time, 168 hours). All experiments were run in duplicate wells and repeated at least twice for reproducibility.
Light morphometry of neurite lengths. […] Neurite lengths were measured on photographic prints using a Houston Instrument HI-PAD digitizing tablet connected to an IBM XT computer with appropriate software (Bioquant IV, R&M Biometrics, Nashville, Tenn.); only those processes greater than two times the cell body length were measured. Data from identically treated wells were not different and were therefore combined. […] Histograms were compared using a Mann-Whitney U test, which makes no assumptions about the shape of the distribution.

[4] = Single-dose pharmacokinetics in the rat; type: in vivo, Sprague-Dawley rat
Procedure: Pharmacokinetics of V-10,367. To determine the appropriate daily dose of V-10,367 for administration to rats, single-dose pharmacokinetics of V-10,367 were evaluated in the rat following intravenous and subcutaneous dosing. […] Since these concentrations were sufficiently above the 10 nM concentration needed to cause neurite extension in vitro, a subcutaneous dose of 200 mg/kg twice daily was selected for subsequent experiments.

soleus nerve = assay: Electron microscopic morphometry of axonal areas in soleus nerve after sciatic nerve crush; type: in vivo, Sprague-Dawley rats
Procedure: (§2) Animals and surgical procedure. Ten six-week-old Sprague-Dawley rats were anesthetized with 2% halothane, the right sciatic nerve exposed, and the nerve crushed twice (for a total of 30 sec using a No. 7 Dumont jeweler's forceps) at the level of the hip. The crush site was marked by tying a sterile 9-0 suture through the perineurial sheath.
as §1, with “Animals were weighed daily and the weights plotted over the 18-day period of the study.” left out
Electron microscopic analysis of axons. […] Axonal areas of both myelinated and unmyelinated fibers were determined by tracing the axolemma using a Houston Instrument HI-PAD digitizing tablet connected to an IBM XT computer with appropriate software (Bioquant IV, R&M biometrics, Nashville, Tenn.). […] For each group (i.e., 400 and 200 mg/kg/day V-10,367-treated and vehicle-treated), mean values and standard areas were calculated for the whole population of axons. […]

rat sciatic nerve [5] = assay: Functional recovery after sciatic nerve crush; type: in vivo, Sprague-Dawley rats
Procedure: as §2, §1
Two separate additional studies were performed. In the first study, three axotomized rats received a single daily subcutaneous injection (200 mg/kg) as above. In the second study, V-10,367 was delivered as to axotomized rats as a continuous infusion. Osmotic pumps (Alza, Palo Alto, Calif.) model 2ML2 filled with V-10,367-HCl (200 mg/ml) or vehicle (two per group) were implanted under the skin on the left side of the animal.
Behavioral assessment. Functional recovery was assessed in FK506-treated animals used for morphological study only. Animals were examined blindly by two investigators daily until the day of perfusion (18 days). […] To obtain records during walking, the hind feet were marked with tempera paint and the animals allowed to freely walk across a sheet of paper between 14-18 days. Toe spread during walking was defined as the distance between the first and fifth digits, measured to the nearest 0.5 mm; three foot prints were analyzed from each animal. This analysis represents a reliable and reproducible index of functional recovery which, unlike the sciatic nerve function index, is not influenced by how fast the animal walks (Walker et al., Restor. Neurol. Neurosci. 6:189-193, 1994).

[6] = single intravenous dose 17.7 mg/kg
[7] = subcutaneous injection 174 mg/kg
[8] = continuous infusion 18 days via osmotic minipump

FKBP-12, sequence (P62942 whole entry, species assumed): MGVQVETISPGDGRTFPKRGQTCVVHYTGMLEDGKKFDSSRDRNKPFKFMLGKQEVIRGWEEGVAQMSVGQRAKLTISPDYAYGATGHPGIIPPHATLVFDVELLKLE

cyclosporin A
Nerve regeneration in the rat sciatic nerve following a crush injury (rat sciatic nerve [1]; rat, in vivo): does not increase nerve regeneration

CC[C@@H]1/C=C(\C)[C@@H](O)[C@H](C)C[C@H](OC)[C@H]2O[C@@](O)(C(=O)C(=O)N3CCCC[C@H]3C(=O)O[C@H](/C(C)=C/[C@@H]3CC[C@@H](O)[C@H](OC)C3)[C@H](C)[C@@H](O)CC1=O)[C@H](C)C[C@@H]2OC [L-685,818, 18-OH, 21-ethyl-FK506]
Functional recovery (rat sciatic nerve [1]; topical administration to the nerve crush site): accelerate functional recovery

COc1cc(C(=O)C(=O)N2CCCC[C@H]2C(=O)OC(CCCc2ccccc2)CCCc2cccnc2)cc(OC)c1OC.Cl (some centres unmarked) [V-10,367]
Tolerability [2]: well tolerated | FKBP-12 inhibition (FKBP-12): potent FKBP-12 inhibitor | Mean neurite length ([3]; 1 nM V-10,367 + NGF 10 ng/mL, 96 h): 110 ± 2.2 μm | Mean neurite length ([3]; 1 nM V-10,367 + NGF 10 ng/mL, 168 h): 136 ± 5.8*^,Δ μm | Mean neurite length ([3]; 10 nM V-10,367 + NGF 10 ng/mL, 96 h): 138 ± 9.4 μm | Mean neurite length ([3]; 10 nM V-10,367 + NGF 10 ng/mL, 168 h): 148 ± 8.6*^,††,Δ μm | Mean neurite length ([3]; 100 nM V-10,367 + NGF 10 ng/mL, 96 h): 121 ± 6.0 μm | Mean neurite length ([3]; 100 nM V-10,367 + NGF 10 ng/mL, 168 h): 118 ± 4.2*^,† μm | Number of processes per cell or branching of cell processes ([3]; 1-100 nM with NGF 10 ng/mL): No change | Concentration of maximal effect on neurite length ([3]; tested at 1, 10, 100 nM with NGF 10 ng/mL): 10 nM | Average blood clearance [4, 6]: 84 mL/min/kg | Elimination half-life [4, 6]: about 1.3 hours | Volume of distribution at steady state [4, 6]: 2.76 L/kg | Average Cmax [4, 7]: 171 ng/mL | Cmax [4, 7]: 285 nM | Trough concentrations at 8 hours post-dose ([4]; subcutaneous injection 174 mg/kg, 174 mg/kg): 27-252 ng/mL and 45-420 nM | Apparent half-life following subcutaneous administration ([4]; subcutaneous vs intravenous): prolonged | Increase of mean axonal areas compared to vehicle (soleus nerve; 18 days after axotomy, subcutaneous injections): 50% | Increase of mean axonal calibers compared to vehicle (soleus nerve; [8]): 40% | Toe spread: distance between the first and fifth digits (rat sciatic nerve [5]; axotomized side, n=3, vehicle 11.0±0.58, uninjured side 19.5±0.39): 13.0±0.41 mm | Functional recovery compared to vehicle-treated controls (rat sciatic nerve [5]; [8]): earlier functional recovery | Efficacy upon oral (gavage) administration (rat sciatic nerve [5]; oral gavage, rat sciatic nerve crush): effective | Days until onset of ability to right the foot and move the toes (onset) (rat sciatic nerve [5]; s.c. V-10,367, n=3, mean ± SEM, vehicle 15.3±0.33): 13.7 ± 0.33 days | Days until ability to walk on hind feet and toes (walking) (rat sciatic nerve [5]; s.c. V-10,367, n=3, mean ± SEM, vehicle 16.3±0.33): 14 ± 0 days
